Measurements reported in paper PMC4128571 (Drug testing and analysis, 2014).

How the values were obtained:
Format in all cases: biochemical
[1] = molecular target: dopamine transporters (DAT) (Rattus norvegicus, UniProt P23977); conditions: for DAT/SERT ratio: (EC50 at DAT)^-1/(EC50 at SERT)^-1, higher value indicates greater DAT selectivity; for Efficacy to evoke release at DAT (of maximal release): rat brain synaptosomes
[2] = molecular target: norepinephrine transporters (NET) (Rattus norvegicus, UniProt Q63380); conditions: rat brain synaptosomes
[3] = molecular target: 5-HT transporters (SERT) (Rattus norvegicus, UniProt P31652); conditions: for Efficacy to evoke release at SERT (of maximal release): rat brain synaptosomes
Sequence of 5-HT transporters (SERT) (P31652 whole entry): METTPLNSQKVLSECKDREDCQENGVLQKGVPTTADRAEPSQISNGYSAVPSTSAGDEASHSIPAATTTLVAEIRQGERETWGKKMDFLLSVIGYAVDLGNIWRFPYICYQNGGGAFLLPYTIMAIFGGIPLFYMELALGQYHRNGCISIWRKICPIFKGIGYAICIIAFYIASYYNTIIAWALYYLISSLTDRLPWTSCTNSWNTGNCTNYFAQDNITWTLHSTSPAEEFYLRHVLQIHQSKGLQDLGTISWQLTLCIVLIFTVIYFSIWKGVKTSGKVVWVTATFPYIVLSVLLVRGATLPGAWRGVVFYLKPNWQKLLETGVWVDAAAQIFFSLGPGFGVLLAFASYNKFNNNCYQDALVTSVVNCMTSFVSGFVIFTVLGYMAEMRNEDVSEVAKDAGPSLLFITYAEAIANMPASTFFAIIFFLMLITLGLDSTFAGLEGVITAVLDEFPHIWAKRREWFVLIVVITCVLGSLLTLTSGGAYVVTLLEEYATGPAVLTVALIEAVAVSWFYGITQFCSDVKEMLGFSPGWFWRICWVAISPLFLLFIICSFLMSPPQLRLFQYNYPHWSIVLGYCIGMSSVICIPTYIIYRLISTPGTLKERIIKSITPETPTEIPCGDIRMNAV

Sequence of dopamine transporters (DAT) (P23977 whole entry): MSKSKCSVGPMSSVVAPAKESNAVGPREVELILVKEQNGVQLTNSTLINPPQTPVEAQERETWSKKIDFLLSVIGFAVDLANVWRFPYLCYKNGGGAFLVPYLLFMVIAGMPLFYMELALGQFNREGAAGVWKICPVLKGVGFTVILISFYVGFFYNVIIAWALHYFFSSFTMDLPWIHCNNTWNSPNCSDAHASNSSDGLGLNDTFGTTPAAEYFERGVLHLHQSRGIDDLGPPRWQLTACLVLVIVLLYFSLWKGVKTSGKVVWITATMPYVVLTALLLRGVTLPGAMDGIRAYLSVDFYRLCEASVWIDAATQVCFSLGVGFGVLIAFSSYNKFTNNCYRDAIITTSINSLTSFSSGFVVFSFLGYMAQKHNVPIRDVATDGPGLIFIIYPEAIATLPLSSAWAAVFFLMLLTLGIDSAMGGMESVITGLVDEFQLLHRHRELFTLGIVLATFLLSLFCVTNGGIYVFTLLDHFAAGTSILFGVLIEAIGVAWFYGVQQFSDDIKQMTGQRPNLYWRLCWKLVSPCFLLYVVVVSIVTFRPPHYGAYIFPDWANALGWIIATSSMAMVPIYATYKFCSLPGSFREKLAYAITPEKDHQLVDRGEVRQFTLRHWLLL
Sequence of norepinephrine transporters (NET) (Q63380 1-617): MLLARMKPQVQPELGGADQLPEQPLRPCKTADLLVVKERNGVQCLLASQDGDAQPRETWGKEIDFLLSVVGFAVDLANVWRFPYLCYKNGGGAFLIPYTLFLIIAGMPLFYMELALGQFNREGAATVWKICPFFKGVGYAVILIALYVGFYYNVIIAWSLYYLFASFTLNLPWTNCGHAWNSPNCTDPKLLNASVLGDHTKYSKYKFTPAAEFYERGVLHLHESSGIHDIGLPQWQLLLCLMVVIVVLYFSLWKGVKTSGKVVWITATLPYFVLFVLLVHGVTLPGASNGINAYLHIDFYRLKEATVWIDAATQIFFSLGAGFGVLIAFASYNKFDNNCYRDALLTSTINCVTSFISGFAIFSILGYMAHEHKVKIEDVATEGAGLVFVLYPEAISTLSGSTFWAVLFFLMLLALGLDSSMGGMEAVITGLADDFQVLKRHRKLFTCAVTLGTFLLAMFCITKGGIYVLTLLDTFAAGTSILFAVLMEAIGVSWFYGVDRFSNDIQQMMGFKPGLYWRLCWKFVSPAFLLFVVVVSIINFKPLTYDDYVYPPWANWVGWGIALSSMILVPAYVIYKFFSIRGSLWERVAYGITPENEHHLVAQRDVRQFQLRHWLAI

| SMILES | EC50 [1] | DAT/SERT ratio [1] | Efficacy to evoke release at DAT (of maximal release) [1] | Efficacy to evoke release at NET (of maximal release) [2] | EC50 [3] | Efficacy to evoke release at SERT (of maximal release) [3] |
| --- | --- | --- | --- | --- | --- | --- |
| NC1=NCC(c2ccccc2)O1 (stereo not drawn) [Aminorex, 5-phenyl-4,5-dihydrooxazol-2-amine] | 9.1 ± 0.9 nM | 45 | fully efficacious | fully efficacious | 414 ± 78 nM | fully efficacious |
| C[C@@H]1N=C(N)O[C@@H]1c1ccccc1 (racemic) [(±)-cis-4-MAR, (±)-cis-4-methylaminorex] |  | 31 | fully efficacious | fully efficacious |  | fully efficacious |
| Cc1ccc([C@H]2OC(N)=N[C@H]2C)cc1 (racemic) [(±)-cis-4,4'-DMAR, (±)-cis-4-Methyl-5-(4-methylphenyl)-4,5-dihydrooxazol-2-amine] |  | 2 | fully efficacious | fully efficacious |  | fully efficacious |
| C[C@H](N)Cc1ccccc1 [d-Amphetamine] |  |  |  | fully efficacious |  |  |
